Drawing on BindingDB's records for patent US20250346597 (Beone Medicines I, 2025), this text covers IC50 for two compounds.

The target of test [1] is Diacylglycerol kinase zeta (Homo sapiens, UniProt Q13574). As to the kind of experiment: Biochemical DGK IC50 Assays. Here is the method:
(§1) Enzymatic reactions of DGKζ, DGKα and DGKδ were performed using ADP-Glo assay with lipid micelle substrate. […] Full length DGKα (D21-10BG, SignalChem) and full length DGKδ (D23-10G, SignalChem) were purchased. […] The resulted product was resuspended in buffer containing 25 mM HEPES pH 7.0, 0.5 mM EDTA and 160 mM Octyl P-D glucopyranoside by vigorous mixing and ultrasonic (IID, Scientz). Final concentration in reaction. […] The inhibition activities testing for the compound disclosed herein were carried out at room temperature in assay buffer containing 50 mM HEPES, 10 mM MgCl2, 0.01% BSA, 0.1 mM Na3VO4, 0.005% Tween-20 and 0.01 mM CaCl2. […] 3 μL 2× enzyme solution was added to wells. […] After 1 hour reaction, 5 μL ADP-Glo reagent (Promga V9101) was added and incubated for 40 minutes. 10 μL Kinase Detection reagent was added and incubated for 30 minutes. Luminescence was measured on a microplate reader (PHERAstar FSX, BMG labtech). The IC50s are calculated based on inhibition of enzyme activity in the presence of increasing concentrations of compounds.

The target in test [2] is Diacylglycerol kinase alpha (Homo sapiens, UniProt P23743). The experiment in a line: Biochemical DGK IC50 Assays. The method, then: as §1

Some results are limits rather than exact numbers.

Chain of Diacylglycerol kinase zeta (Q13574 as listed by the source): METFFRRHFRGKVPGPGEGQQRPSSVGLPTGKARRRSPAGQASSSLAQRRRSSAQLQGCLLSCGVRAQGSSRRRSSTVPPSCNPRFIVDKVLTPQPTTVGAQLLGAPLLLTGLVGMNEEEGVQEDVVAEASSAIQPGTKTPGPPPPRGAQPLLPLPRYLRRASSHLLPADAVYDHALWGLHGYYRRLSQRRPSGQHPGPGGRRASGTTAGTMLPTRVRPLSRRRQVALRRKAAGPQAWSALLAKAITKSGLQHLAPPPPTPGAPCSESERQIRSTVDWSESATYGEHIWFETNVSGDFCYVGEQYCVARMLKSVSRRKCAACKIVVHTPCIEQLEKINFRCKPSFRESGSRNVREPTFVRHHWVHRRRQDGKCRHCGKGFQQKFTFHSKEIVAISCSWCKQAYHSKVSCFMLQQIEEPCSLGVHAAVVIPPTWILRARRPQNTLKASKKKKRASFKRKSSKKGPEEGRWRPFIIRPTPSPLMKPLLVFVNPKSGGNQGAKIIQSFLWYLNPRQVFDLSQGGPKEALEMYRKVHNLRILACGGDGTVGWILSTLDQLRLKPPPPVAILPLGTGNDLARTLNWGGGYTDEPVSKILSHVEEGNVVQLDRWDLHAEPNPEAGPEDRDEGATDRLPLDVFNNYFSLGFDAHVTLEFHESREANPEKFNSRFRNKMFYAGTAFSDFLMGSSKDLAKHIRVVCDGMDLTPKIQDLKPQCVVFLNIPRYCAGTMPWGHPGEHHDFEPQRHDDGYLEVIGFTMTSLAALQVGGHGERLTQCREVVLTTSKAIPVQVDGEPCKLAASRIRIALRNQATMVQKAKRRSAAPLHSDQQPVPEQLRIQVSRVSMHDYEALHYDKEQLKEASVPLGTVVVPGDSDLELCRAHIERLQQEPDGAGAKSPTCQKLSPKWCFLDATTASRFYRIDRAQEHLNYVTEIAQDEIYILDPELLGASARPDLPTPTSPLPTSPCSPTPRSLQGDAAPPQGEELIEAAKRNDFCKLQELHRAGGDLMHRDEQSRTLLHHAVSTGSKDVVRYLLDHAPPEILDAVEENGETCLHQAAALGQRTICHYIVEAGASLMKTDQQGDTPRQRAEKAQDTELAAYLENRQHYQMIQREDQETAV
Chain of Diacylglycerol kinase alpha (P23743 whole entry): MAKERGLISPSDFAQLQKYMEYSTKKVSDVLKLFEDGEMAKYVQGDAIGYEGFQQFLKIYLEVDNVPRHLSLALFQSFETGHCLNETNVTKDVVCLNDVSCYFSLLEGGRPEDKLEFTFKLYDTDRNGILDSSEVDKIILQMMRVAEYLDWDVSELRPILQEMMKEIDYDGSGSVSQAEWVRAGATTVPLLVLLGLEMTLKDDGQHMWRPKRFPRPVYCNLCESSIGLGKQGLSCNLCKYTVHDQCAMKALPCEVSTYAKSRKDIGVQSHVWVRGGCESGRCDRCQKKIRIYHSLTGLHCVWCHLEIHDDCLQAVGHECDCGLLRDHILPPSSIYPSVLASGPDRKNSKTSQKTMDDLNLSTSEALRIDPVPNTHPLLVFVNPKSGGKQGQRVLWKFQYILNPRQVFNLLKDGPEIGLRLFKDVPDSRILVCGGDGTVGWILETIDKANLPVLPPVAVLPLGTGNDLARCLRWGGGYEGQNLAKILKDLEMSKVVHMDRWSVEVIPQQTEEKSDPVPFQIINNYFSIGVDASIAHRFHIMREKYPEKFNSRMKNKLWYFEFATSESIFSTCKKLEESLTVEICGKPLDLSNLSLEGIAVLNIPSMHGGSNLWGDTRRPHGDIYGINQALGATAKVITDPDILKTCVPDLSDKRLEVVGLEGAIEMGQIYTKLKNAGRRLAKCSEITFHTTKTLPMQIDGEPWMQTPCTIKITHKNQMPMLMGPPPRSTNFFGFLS

In general, IC50 refers to the point on the concentration scale where inhibition reaches its midpoint. Compound `CC[C@H]1CN(C(C)c2ccc(N)nc2)[C@H](CC)CN1c1cc(=O)n(C)c2cn(CC#N)nc12` (single isomer, unassigned) [US20250346597, Compound A187b] came in with an IC50 in test [1] of more than 10000 nM.

In the case of `CC[C@@H]1CN(C2CC(=O)N(C)C3=CN(CC#N)NC32)[C@@H](CC)CN1C(C)c1ccc(OCCOC)cc1` (stereo partly drawn) [US20250346597, Compound A11], the IC50 in test [1] was 500 nM; in test [2], 79 nM.
